One series deals with T1, 1b (BK) NS5BΔ21 (Hepatitis C virus genotype 1b, UniProt P26663).
T1 construct: 100 nM, 1b (BK) NS5BΔ21
The experiment in a line: HCV Polymerase Inhibition Assay. Type of series: biochemical. Conditions: in each of the HCV assays tested (polymerase and replicon assays). The protocol: HCV polymerase reactions were carried out using a modified method of Howe et al., Antimicrobial Agents and Chemotherapy 2004 48(12): 4813-4821. Reactions contained a final concentration of, 0.5% DMSO, 100 nM, 1b (BK) NS5BΔ21, 20 mM Tris-HCl pH 7.5, 5 mM MgCl2, 5 mM MnCl2, 3 mM DTT, 0.05% BSA, 0.2 U/μL RNasin, 10 μg/mL Poly(rC) template, GTP (at Km) and 0.05 μCi/μL ^33P-GTP in a total reaction volume of 50 μL. Compounds were tested in a three fold dilution series, for example starting from 50 μM. Reactions were initiated with the addition of GTP and terminated after 90 min with 50 μL ice cold 0.2 M EDTA. Terminated reactions were transferred to DEAE 96-well filter plates, unincorporated nucleotides washed from the filters and 50 μL scintillation fluid added prior to reading on a scintillation counter. The compound concentration that reduced ^33P-GTP incorporation by 50% (IC50) was calculated using non-linear regression.

Series [1] is described as follows: Aqueous Solubility (laser nephelometry). It is filed as physicochemical. Conditions: at both pH2 and pH6.5; good solubility when >25 ug/mL. As to the method: Test compounds prepared in DMSO were screened in duplicate over a range of concentrations (1.6-100 ug/mL) in different aqueous media (for example a pH6.5 buffers which are relevant to the stomach and upper regions of the small intestine and therefore important when predicting the amount of drug likely to be in solution following oral administration). Test compounds were serially diluted in 100% DMSO ranging from 10-0.16 mg/mL. These titrated DMSO stocks were then further diluted 1:100 with assay buffer and added to test plates (UV Star Griener 384 well plates), maintaining the DMSO concentration at 1%.

The values that follow come from US9365554B2, “Viral polymerase inhibitors” (BIOTA SCIENTIFIC MANAGEMENT PTY LTD, priority 2012, dated 2016).

T1 sequence (P26663 2420-2989, stated change not applied): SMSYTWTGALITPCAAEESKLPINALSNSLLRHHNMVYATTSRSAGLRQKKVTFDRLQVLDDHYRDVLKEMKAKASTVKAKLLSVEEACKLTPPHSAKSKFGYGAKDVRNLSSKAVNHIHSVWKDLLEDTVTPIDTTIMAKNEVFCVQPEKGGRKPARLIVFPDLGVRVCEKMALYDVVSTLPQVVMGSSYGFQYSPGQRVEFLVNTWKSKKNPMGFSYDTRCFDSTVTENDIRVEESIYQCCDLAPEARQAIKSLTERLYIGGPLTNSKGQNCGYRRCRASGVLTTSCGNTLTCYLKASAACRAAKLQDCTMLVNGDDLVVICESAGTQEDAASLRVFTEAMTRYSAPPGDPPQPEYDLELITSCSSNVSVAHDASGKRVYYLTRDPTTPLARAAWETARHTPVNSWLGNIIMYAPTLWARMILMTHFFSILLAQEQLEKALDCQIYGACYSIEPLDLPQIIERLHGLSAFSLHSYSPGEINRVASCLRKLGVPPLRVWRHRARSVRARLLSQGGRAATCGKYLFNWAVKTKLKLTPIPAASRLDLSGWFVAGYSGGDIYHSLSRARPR

For `CCN(c1cc2nn(-c3ccc(C)cn3)c(C(=O)NC)c2cc1C1CC1)S(C)(=O)=O` [Compound 5, 5-cyclopropyl-6-[ethyl(methylsulfonyl)amino]-N-methyl-2-(5-methylpyridin-2-yl)-2H-indazole-3-carboxamide], at 1b (BK) NS5BΔ21, the “times more potent than Compound A” value is “at least 10 times”. The “solubility (in words)” value in series [1] is reported as “good solubility”.
Take `CCN(c1cc2nn(-c3ccc(C)nc3)c(C(=O)NC)c2cc1C1CC1)S(C)(=O)=O` [Compound A, 5-Cyclopropyl-6-[ethyl(methylsulfonyl)amino]-N-methyl-2-(6-methylpyridin-3-yl)-2H-indazole-3-carboxamide, reference compound]: the “solubility (in words)” value in series [1] is “very poorly soluble”.
